Experiments:
Experiment in all cases: filter binding kinase assay
Assay type in all cases: biochemical
CAMK1 = molecular target: T1, CAMK1 (Homo sapiens, UniProt Q14012); conditions: derived from % inhibition at 1 μM
T1 construct: purchased
Outline: (§1)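 Radioactivity retained on P81 phosphocellulose filters is the read-out. Before the reaction begins, test substance sits with kinase and substrate for 5 minutes at room temperature. The ATP solution added is 5, 20 or 50 […] according to the kinase, and acid quench ends the reaction.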

IKBKB = molecular target: T2, IKBKB (Homo sapiens, UniProt O14920); conditions: derived from % inhibition at 1 μM
T2 construct: purchased
T2 sequence (O14920 1-756): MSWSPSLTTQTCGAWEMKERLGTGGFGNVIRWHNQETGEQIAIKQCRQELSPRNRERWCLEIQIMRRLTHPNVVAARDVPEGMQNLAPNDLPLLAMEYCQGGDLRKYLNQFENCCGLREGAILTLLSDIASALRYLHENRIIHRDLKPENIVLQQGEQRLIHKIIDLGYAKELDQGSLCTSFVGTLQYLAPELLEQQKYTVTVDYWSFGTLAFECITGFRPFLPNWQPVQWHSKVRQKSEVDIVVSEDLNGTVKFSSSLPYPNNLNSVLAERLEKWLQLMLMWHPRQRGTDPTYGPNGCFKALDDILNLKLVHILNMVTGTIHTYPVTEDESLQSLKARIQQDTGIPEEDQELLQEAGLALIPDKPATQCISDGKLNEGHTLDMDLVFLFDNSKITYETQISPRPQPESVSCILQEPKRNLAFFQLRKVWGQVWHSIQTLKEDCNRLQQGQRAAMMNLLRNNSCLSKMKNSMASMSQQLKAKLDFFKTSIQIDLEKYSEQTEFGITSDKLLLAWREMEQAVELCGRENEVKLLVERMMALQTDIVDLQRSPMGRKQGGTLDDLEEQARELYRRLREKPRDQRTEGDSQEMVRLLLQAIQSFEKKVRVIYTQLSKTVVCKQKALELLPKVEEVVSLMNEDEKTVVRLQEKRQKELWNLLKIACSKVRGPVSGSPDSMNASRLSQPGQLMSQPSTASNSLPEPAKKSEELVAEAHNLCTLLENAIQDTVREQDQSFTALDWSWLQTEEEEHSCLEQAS
Outline: as §1

ERBB4 = molecular target: T3, ERBB4 (Homo sapiens, UniProt Q15303); conditions: derived from % inhibition at 1 μM
T3 construct: purchased
Outline: as §1

PIM2 = molecular target: T4, PIM2 (Homo sapiens, UniProt Q9P1W9); conditions: derived from % inhibition at 1 μM
T4 construct: purchased
T4 sequence (Q9P1W9 whole entry, species assumed): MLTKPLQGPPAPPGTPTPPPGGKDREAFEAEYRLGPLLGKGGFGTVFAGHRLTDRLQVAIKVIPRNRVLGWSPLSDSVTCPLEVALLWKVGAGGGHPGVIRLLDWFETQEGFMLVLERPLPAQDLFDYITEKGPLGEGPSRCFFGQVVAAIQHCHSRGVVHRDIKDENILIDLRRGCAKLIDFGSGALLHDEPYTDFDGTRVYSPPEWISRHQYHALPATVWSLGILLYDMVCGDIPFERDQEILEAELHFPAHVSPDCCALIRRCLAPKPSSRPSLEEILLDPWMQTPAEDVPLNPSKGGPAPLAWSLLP
Outline: as §1

PDPK1 (PDK1) = molecular target: T5, PDPK1 (PDK1) (Homo sapiens, UniProt O15530); conditions: for IC50: derived from % inhibition at 1 μM, first PDPK1 line
T5 construct: purchased
T5 sequence (O15530 1-556): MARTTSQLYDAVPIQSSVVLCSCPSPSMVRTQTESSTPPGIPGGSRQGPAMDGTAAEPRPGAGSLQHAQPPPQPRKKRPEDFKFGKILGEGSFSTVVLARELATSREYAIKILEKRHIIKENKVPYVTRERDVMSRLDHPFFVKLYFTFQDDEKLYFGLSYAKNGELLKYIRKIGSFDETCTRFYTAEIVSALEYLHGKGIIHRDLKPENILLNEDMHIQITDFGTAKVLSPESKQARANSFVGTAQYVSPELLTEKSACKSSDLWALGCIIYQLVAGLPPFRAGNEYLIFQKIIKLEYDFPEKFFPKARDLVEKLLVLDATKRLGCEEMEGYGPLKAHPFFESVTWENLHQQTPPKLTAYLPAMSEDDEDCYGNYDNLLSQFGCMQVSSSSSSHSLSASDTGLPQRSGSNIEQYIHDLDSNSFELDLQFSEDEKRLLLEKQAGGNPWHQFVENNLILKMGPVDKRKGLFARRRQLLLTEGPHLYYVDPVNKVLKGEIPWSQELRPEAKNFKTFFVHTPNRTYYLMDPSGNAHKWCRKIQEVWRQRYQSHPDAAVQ
Outline: as §1

ROCK2 (Rock II) = molecular target: T6, ROCK2 (Rock II) (Homo sapiens, UniProt O75116); conditions: for IC50: derived from % inhibition at 1 μM
T6 construct: purchased
T6 sequence (O75116 whole entry, species assumed): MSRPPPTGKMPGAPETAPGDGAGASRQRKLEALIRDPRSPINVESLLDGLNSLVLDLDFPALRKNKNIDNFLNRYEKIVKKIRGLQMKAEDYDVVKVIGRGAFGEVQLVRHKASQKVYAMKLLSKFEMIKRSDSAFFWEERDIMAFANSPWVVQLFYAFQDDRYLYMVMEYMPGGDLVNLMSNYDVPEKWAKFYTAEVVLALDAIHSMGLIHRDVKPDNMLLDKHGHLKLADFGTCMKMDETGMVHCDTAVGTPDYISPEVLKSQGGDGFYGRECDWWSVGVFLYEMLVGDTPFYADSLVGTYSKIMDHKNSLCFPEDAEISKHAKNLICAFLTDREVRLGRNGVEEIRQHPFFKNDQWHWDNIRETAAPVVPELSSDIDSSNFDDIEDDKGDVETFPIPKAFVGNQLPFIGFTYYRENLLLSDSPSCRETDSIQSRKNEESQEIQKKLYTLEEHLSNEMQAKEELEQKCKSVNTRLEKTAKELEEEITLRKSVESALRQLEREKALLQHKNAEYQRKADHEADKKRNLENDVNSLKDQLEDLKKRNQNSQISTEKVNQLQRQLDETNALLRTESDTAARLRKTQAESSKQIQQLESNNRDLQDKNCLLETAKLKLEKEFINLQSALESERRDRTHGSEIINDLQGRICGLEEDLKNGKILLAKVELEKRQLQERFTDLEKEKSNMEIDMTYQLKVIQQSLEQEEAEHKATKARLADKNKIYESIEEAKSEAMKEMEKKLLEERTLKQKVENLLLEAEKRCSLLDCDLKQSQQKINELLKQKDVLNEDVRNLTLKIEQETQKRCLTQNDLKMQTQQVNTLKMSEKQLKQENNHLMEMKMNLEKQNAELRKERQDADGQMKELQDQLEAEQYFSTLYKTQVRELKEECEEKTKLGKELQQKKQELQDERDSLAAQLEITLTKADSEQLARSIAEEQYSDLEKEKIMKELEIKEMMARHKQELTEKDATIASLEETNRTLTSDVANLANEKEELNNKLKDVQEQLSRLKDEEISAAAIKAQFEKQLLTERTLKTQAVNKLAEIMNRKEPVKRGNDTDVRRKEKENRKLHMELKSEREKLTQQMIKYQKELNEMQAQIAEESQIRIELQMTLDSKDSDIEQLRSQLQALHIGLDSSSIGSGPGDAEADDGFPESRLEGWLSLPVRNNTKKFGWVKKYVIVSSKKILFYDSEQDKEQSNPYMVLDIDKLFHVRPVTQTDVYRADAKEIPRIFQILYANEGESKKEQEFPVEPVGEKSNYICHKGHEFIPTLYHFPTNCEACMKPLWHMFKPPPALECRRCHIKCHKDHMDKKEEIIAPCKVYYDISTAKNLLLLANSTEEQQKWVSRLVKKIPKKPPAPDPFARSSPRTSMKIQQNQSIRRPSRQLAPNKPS
Outline: as §1

MARK3 = molecular target: T7, MARK3 (Homo sapiens, UniProt P27448); conditions: for IC50: derived from % inhibition at 1 μM
T7 construct: purchased
T7 sequence (P27448 whole entry, species assumed): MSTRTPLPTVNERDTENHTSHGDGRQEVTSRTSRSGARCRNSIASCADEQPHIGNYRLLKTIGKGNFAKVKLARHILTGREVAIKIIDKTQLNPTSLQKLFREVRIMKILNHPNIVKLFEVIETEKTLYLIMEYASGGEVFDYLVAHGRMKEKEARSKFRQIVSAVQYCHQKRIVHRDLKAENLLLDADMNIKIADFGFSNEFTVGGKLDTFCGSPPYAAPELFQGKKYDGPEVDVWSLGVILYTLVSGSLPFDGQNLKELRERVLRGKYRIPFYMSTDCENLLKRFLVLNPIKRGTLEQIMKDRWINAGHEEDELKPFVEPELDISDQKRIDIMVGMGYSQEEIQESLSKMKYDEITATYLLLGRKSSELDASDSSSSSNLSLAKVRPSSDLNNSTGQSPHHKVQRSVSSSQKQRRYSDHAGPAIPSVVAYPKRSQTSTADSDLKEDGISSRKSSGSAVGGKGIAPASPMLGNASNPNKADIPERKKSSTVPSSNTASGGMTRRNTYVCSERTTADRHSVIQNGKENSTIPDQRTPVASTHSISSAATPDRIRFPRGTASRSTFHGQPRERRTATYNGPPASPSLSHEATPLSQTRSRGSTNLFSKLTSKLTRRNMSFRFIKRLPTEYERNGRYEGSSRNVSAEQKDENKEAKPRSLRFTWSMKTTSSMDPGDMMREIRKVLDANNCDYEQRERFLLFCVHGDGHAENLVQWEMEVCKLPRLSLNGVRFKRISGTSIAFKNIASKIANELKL
Outline: as §1

MKNK1 = molecular target: T8, MKNK1 (Homo sapiens, UniProt Q9BUB5); conditions: derived from % inhibition at 1 μM
T8 construct: purchased
Outline: as §1

EPHA2 = molecular target: T9, EPHA2 (Homo sapiens, UniProt P29317); conditions: derived from % inhibition at 1 μM
T9 construct: purchased
T9 sequence (P29317 24-976, species assumed): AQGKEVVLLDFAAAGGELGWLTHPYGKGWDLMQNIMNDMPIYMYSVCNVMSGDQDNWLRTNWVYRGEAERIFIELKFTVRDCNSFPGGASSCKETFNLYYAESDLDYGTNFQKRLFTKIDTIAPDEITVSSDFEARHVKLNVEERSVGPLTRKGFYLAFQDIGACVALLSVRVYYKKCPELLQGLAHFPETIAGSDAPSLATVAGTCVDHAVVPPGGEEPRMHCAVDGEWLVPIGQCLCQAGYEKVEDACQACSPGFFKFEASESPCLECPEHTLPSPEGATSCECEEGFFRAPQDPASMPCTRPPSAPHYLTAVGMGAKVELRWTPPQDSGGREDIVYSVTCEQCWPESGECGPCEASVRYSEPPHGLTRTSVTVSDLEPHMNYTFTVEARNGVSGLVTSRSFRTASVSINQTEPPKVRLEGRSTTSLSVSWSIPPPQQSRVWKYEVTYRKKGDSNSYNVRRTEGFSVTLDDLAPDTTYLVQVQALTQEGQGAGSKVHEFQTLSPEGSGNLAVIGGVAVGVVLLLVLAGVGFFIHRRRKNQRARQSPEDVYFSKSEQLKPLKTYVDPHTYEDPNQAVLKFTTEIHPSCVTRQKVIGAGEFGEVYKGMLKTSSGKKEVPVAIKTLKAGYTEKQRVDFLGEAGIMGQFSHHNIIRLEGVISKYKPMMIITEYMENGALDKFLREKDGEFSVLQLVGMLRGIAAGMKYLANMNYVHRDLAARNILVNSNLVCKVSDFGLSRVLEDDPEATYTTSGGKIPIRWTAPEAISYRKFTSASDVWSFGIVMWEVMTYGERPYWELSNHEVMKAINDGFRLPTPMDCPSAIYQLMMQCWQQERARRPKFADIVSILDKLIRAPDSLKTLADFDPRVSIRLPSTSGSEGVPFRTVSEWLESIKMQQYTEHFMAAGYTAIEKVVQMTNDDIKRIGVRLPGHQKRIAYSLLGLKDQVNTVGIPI
Outline: as §1

CSNK1D = molecular target: T10, CSNK1D (Homo sapiens, UniProt P48730); conditions: derived from % inhibition at 1 μM
T10 construct: purchased
T10 sequence (P48730 whole entry, species assumed): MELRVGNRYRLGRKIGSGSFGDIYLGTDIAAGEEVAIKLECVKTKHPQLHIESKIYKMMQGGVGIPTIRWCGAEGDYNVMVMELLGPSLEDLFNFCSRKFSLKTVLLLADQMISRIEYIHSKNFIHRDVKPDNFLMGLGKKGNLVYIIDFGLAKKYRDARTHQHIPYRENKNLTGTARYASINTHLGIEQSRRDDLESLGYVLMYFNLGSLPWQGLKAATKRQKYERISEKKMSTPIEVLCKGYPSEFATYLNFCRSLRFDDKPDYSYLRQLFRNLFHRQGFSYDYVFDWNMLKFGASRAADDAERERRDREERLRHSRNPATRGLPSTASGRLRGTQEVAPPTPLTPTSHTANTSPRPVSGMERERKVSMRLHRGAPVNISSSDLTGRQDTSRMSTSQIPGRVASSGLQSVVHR
Outline: as §1

INSR = molecular target: T11, INSR (Homo sapiens, UniProt P06213); conditions: derived from % inhibition at 1 μM
T11 construct: purchased
Outline: as §1

HIPK1 = molecular target: T12, HIPK1 (Homo sapiens, UniProt Q86Z02); conditions: for IC50: derived from % inhibition at 1 μM; for remaining activity at 1 µM: read-out: residual kinase activity HIPK1
T12 construct: purchased
T12 sequence (Q86Z02 whole entry, species assumed): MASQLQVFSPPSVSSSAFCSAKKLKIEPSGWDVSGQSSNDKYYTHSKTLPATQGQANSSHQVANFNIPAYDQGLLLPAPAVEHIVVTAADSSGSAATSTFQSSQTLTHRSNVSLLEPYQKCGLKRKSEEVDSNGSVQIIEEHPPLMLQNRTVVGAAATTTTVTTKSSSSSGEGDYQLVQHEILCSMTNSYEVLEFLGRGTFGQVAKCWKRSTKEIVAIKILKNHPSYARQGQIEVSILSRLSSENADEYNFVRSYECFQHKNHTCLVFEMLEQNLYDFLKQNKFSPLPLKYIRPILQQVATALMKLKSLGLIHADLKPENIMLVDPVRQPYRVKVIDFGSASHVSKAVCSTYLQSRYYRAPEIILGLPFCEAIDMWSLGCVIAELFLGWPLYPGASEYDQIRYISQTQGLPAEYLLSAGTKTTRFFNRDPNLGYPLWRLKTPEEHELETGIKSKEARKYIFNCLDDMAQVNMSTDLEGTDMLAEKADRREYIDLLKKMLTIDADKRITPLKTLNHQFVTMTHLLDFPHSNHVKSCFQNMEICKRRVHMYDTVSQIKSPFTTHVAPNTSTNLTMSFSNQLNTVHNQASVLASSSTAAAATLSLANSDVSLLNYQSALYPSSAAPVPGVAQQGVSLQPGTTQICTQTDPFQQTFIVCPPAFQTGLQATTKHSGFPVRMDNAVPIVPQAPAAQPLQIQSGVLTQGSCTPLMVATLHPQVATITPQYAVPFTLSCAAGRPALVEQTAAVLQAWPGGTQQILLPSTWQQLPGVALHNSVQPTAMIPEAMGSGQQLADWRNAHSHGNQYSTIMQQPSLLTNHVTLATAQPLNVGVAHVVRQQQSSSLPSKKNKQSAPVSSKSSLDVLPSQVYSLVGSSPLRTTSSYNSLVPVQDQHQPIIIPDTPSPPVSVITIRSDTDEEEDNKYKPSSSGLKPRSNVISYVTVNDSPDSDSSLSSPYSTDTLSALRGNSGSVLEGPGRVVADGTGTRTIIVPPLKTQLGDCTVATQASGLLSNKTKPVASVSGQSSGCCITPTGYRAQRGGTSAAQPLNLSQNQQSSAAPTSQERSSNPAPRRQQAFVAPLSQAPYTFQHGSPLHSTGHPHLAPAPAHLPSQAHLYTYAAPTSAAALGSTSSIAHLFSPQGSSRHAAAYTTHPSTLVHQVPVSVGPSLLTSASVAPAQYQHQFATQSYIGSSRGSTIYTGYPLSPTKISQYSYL
Outline: as §1

SRC = molecular target: T13, SRC (Homo sapiens, UniProt P12931); conditions: derived from % inhibition at 1 μM
T13 construct: purchased
Outline: as §1

MST4 = molecular target: T14, MST4 (Homo sapiens, UniProt Q9P289); conditions: derived from % inhibition at 1 μM
T14 construct: purchased
Outline: as §1

Row | SMILES | IC50 (CAMK1) [µM] | IC50 (IKBKB) [µM] | IC50 (ERBB4) [nM] | IC50 (PIM2) [µM] | IC50 (PDPK1 (PDK1)) [nM] | IC50 (ROCK2 (Rock II)) [µM] | IC50 (MARK3) [nM] | IC50 (MKNK1) [µM] | IC50 (EPHA2) [nM] | IC50 (CSNK1D) [µM] | IC50 (INSR) [µM] | IC50 (HIPK1) [nM] | IC50 (SRC) [µM] | IC50 (MST4) [nM] | remaining activity at 1 µM (ROCK2 (Rock II); read-out: residual kinase activity Rock II) [%] | remaining activity at 1 µM (HIPK1) [%] | remaining activity at 1 µM (PDPK1 (PDK1); read-out: residual kinase activity PDK1) [%] | remaining activity at 1 µM (MARK3; read-out: residual kinase activity MARK3) [%]
1 | CC(C)(C)OC(=O)Nc1ncsc1C#CCN1C(=O)c2ccccc2C1=O [Compound A26, tert-butyl{5-[3-(1,3-dioxo-1,3-dihydroisoindol-2-yl)prop-1-ynyl]-thiazol-4-yl}carbamate] | > 1 | > 1 | > 1000 | > 1 | 1000 to 10000 | > 1 | 1000 to 10000 | > 1 | > 1000 | > 1 | 1 to 10 | > 1000 | 10 to 100 | 10000 to 100000 | – | – | – | –
2 | Nc1ncsc1C#Cc1cccc(O)c1 [Compound A27, 3-(4-aminothiazol-5-ylethynyl)phenol] | 1 to 10 | 1 to 10 | 1000 to 10000 | 1 to 10 | > 1000 | 10 to 100 | 10000 to 100000 | 10 to 100 | > 1000 | 1 to 10 | 10 to 100 | 1000 to 10000 | 1 to 10 | > 1000 | – | – | – | –
3 | c1ccc(Cc2c[nH]c3ncsc23)cc1 [Compound A7, 6-benzyl-4H-pyrrolo[2,3-d]thiazole] | 1 to 10 | 1 to 10 | 10000 to 100000 | > 1 | > 1000 | 0.01 to 1 | 1000 to 10000 | > 1 | 10000 to 100000 | 1 to 10 | > 1 | > 1000 | 1 to 10 | > 1000 | 36 | – | – | –
4 | CC(C)(C)OC(=O)Nc1nc(-c2ccncc2)sc1C#CCN1CCOCC1 [Compound A25, tert-butyl[5-(3-morpholin-4-ylprop-1-ynyl)-2-pyridin-4-ylthiazol-4-yl]-carbamate] | 1 to 10 | > 1 | > 1000 | 1 to 10 | > 1000 | 10 to 100 | > 1000 | > 1 | > 1000 | > 1 | > 1 | 10 to 1000 | 1 to 10 | > 1000 | – | 48 | – | –
5 | Nc1ncsc1C#Cc1cnc2[nH]ccc2c1 [Compound A22, 5-(1H-pyrrolo[2,3-b]pyridin-5-ylethynyl)thiazol-4-ylamine] | 10 to 100 | 10 to 100 | > 1000 | 10 to 100 | 1000 to 10000 | > 1 | 10 to 1000 | 10 to 100 | > 1000 | 10 to 100 | 10 to 100 | 10 to 1000 | 10 to 100 | 1000 to 10000 | – | 36 | 53 | 15

Reference: US8703961B2, “Thiazole derivatives for the treatment of diseases such as cancer” (Merck Patent GmbH, priority 2009, dated 2014)
